Test results taken from US10508085B2, “Compounds and methods for IDO and TDO modulation, and indications therefor” (Plexxikon Inc., priority 2016, dated 2019).

Experiments:
[1] = molecular target: T1, Human Indoleamine 2,3-dioxygenase (IDO) (Homo sapiens, UniProt P14902); assay: Human IDO enzymatic assay (kynurenine level); type: biochemical; conditions: 6 nM IDO, 10 μM L-Trp; geometric mean; read-out: IDO1 GMean: IC50 (μM) (Biochemical Assay)
T1 construct: His tag (N); made in house; host or cells: E. coli
T1 sequence (P14902 whole entry): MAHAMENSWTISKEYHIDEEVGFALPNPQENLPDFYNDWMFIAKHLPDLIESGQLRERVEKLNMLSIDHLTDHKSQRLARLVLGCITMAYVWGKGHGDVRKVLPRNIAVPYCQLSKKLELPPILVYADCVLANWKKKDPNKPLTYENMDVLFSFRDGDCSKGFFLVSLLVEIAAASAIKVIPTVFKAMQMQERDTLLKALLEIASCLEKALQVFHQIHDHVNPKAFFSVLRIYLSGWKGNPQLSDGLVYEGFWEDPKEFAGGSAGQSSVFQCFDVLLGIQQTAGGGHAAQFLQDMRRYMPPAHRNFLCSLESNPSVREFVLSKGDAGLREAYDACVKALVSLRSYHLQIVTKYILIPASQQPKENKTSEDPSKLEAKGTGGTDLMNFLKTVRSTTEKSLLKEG
Outline: (§1)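 Compound is mixed with His-tagged enzyme from E. coli in pH 6.5 phosphate buffer containing ascorbate, methylene blue and catalase, at room temperature. IDO uses 6 nM enzyme and 10 μM Trp for 20 min. TDO uses 1 nM enzyme and 350 μM Trp for 70 min. TCA stops the reaction, and IC50 is derived from kynurenine levels.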

[2] = molecular target: T2, Human Tryptophan 2,3-dioxygenase (TDO) (Homo sapiens, UniProt P48775); assay: Human TDO enzymatic assay (kynurenine level); type: biochemical; conditions: 1 nM TDO, 350 μM L-Trp; geometric mean; read-out: TDO GMean: IC50 (μM) (Biochemical Assay)
T2 construct: His tag (N); made in house; host or cells: E. coli
T2 sequence (P48775 whole entry): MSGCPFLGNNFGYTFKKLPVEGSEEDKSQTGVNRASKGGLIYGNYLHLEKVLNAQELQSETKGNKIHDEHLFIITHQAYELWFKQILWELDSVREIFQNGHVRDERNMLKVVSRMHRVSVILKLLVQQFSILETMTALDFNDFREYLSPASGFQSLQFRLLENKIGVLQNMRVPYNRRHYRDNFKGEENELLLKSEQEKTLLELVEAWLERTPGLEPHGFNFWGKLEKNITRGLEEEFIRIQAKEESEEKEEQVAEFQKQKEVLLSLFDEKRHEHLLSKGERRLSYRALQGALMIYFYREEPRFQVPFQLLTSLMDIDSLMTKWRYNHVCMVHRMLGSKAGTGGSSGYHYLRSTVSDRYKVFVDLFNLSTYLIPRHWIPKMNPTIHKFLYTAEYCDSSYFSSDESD
Outline: as §1

Row | Compound | IC50 [1] [µM] | IC50 [2] [µM]
1 | CC(C)(C1CCN(C(=O)CC2CC2)CC1)C(O)c1cc(Cl)cc2[nH]ncc12 (stereo not drawn) [Compound P-0608, 1-(4-(1-(6-chloro-1H-indazol-4-yl)-1-hydroxy-2-methylpropan-2-yl)piperidin-1-yl)-2-cyclopropylethan-1-one] | 0.0001 to 10 | 0.0001 to 10
2 | CC(C)(C1CCN(C(=O)CN2CCOCC2)CC1)C(O)c1cc(Cl)cc2[nH]ncc12 (stereo not drawn) [Compound P-0609, 1-(4-(1-(6-chloro-1H-indazol-4-yl)-1-hydroxy-2-methylpropan-2-yl)piperidin-1-yl)-2-morpholinoethan-1-one] | 0.0001 to 10 | 0.0001 to 10
3 | CC(C)(C1CCN(C(=O)CC2CCS(=O)(=O)CC2)CC1)C(O)c1cc(Cl)cc2[nH]ncc12 (stereo not drawn) [Compound P-0610, 1-(4-(1-(6-chloro-1H-indazol-4-yl)-1-hydroxy-2-methylpropan-2-yl)piperidin-1-yl)-2-(1,1-dioxidotetrahydro-2H-thiopyran-4-yl)ethan-1-one] | 0.0001 to 10 | 0.0001 to 10
4 | CC1(C)C(C(=O)N2CCC(C(F)(F)[C@H](O)c3c4c(cc5cn[nH]c35)CC4)CC2)C1(C)C [Compound P-0616, (R)-(4-(2-(5,6-dihydro-1H-cyclobuta[f]indazol-7-yl)-1,1-difluoro-2-hydroxyethyl)piperidin-1-yl)(2,2,3,3-tetramethylcyclopropyl) methanone] | 0.0001 to 10 | 10 to 100
5 | O=C(CC1CCOCC1)N1CCC(C(F)(F)[C@H](O)c2c3c(cc4cn[nH]c24)CC3)CC1 [Compound P-0617, (R)-1-(4-(2-(5,6-dihydro-1H-cyclobuta[f]indazol-7-yl)-1,1-difluoro-2-hydroxyethyl)piperidin-1-yl)-2-(tetrahydro-2H-pyran-4-yl)ethan-1-one] | 0.0001 to 10 | 0.0001 to 10

Second part, the molecule after the results:

Row | IC50 [1] [µM] | IC50 [2] [µM] | Compound
6 | 0.0001 to 10 | 0.0001 to 10 | CC(C)(C1CCN(C(N)=O)CC1)C(O)c1cc(Cl)cc2[nH]ncc12 (stereo not drawn) [Compound P-0606, 4-(1-(6-chloro-1H-indazol-4-yl)-1-hydroxy-2-methylpropan-2-yl)piperidine-1-carboxamide]
7 | 0.0001 to 10 | 0.0001 to 10 | CC(C)(C)OC(=O)N1CCC(C(C)(C)C(O)c2cc(Cl)cc3[nH]ncc23)CC1 (stereo not drawn) [Compound P-0607, tert-butyl 4-(1-(6-chloro-1H-indazol-4-yl)-1-hydroxy-2-methylpropan-2-yl)piperidine-1-carboxylate]
8 | 0.0001 to 10 | 0.0001 to 10 | O=C(C1CC1)N1CCC(C(F)(F)[C@H](O)c2c3c(cc4cn[nH]c24)CC3)CC1 [Compound P-0611, (R)-cyclopropyl(4-(2-(5,6-dihydro-1H-cyclobuta[f]indazol-7-yl)-1,1-difluoro-2-hydroxyethyl)piperidin-1-yl)methanone]
9 | 0.0001 to 10 | 0.0001 to 10 | CCC(=O)N1CCC(C(F)(F)[C@H](O)c2c3c(cc4cn[nH]c24)CC3)CC1 [Compound P-0612, (R)-1-(4-(2-(5,6-dihydro-1H-cyclobuta[f]indazol-7-yl)-1,1-difluoro-2-hydroxyethyl)piperidin-1-yl) propan-1-one]
10 | 0.0001 to 10 | 0.0001 to 10 | N#CCC(=O)N1CCC(C(F)(F)[C@H](O)c2c3c(cc4cn[nH]c24)CC3)CC1 [Compound P-0613, (R)-3-(4-(2-(5,6-dihydro-1H-cyclobuta[f]indazol-7-yl)-1,1-difluoro-2-hydroxyethyl)piperidin-1-yl)-3-oxopropanenitrile]
11 | 0.0001 to 10 | 0.0001 to 10 | COCC(=O)N1CCC(C(F)(F)[C@H](O)c2c3c(cc4cn[nH]c24)CC3)CC1 [Compound P-0614, (R)-1-(4-(2-(5,6-dihydro-1H-cyclobuta[f]indazol-7-yl)-1,1-difluoro-2-hydroxyethyl)piperidin-1-yl)-2-methoxyethan-1-one]
12 | 0.0001 to 10 | 0.0001 to 10 | O=C(CO)N1CCC(C(F)(F)[C@H](O)c2c3c(cc4cn[nH]c24)CC3)CC1 [Compound P-0615, (R)-1-(4-(2-(5,6-dihydro-1H-cyclobuta[f]indazol-7-yl)-1,1-difluoro-2-hydroxyethyl)piperidin-1-yl)-2-hydroxyethan-1-one]
